The record followed here is US20250145564A1, “SULFONYLUREA COMPOUND, PREPARATION METHOD THEREFOR, AND APPLICATION THEREOF” (SHANGHAI INSTITUTE OF MATERIA MEDICA, CHINESE ACADEMY OF …, priority 2021, published 2025).

SMILES strings stand for the structures. Where only a bound is given, the exact number is not on record here.

One assay concerns the target T1, sEH (human recombinant) (Homo sapiens, UniProt P34913).
T1 sequence (P34913 1-555): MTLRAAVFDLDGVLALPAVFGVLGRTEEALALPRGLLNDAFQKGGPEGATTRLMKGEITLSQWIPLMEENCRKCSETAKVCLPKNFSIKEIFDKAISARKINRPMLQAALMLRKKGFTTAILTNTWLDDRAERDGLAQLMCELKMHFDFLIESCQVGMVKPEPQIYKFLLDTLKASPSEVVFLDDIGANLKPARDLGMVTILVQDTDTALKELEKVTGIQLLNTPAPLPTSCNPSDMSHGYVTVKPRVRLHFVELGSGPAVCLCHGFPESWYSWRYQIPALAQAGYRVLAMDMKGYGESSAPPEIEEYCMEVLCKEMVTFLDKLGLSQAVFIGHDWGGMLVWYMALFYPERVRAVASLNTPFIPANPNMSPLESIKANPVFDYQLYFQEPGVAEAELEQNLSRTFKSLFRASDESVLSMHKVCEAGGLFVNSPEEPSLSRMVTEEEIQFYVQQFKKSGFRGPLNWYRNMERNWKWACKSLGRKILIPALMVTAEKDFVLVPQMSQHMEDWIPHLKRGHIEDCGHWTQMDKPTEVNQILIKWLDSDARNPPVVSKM
The assay can be described thus: sEH inhibition assay (fluorescence).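 Further: enzyme preincubated with compound 30 min at 25 °C, then substrate added and fluorescence read after 15 min at 25 °C, 320 nm and 460 nm, versus DMSO negative control.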
Settings: not given
In the case of `COc1ccc2c(c1)C(=O)N(CCc1ccc(S(=O)(=O)N(C)C(=O)NC3CCCCC3)cc1)C(=O)C2(C)C` [Compound I-2], the concentration for half-maximal inhibition (IC50) (commonly the concentration at which inhibition is half-maximal) is under 0.2 µM.

As to `COc1ccc(Cl)cc1C(=O)NCCc1ccc(S(=O)(=O)N(C)C(=O)NC2CCCCC2)cc1` [Compound I-3], the IC50 was under 0.2 µM.

On to `CC(=O)c1ccc(S(=O)(=O)N(C)C(=O)NC2CCCCC2)cc1` [Compound I-5], for which the IC50 lay in the range of 0.2 to 1 µM.

For the molecule `C=CCN(C(=O)N[C@H]1CC[C@H](C)CC1)S(=O)(=O)c1ccc(CCNC(=O)N2CC(C)=C(CC)C2=O)cc1` [Compound I-6], the IC50 was 1 to 10 µM.

As to `Cc1ccc(S(=O)(=O)N(C(=O)NN2CC3CCCC3C2)C(C)C)cc1` (stereo not drawn) [Compound I-7], the IC50 was 1 to 10 µM.

Turning to `CCC1=C(C)CN(C(=O)NCCc2ccc(S(=O)(=O)N(C(=O)N[C@H]3CC[C@H](C)CC3)C3CC3)cc2)C1=O` [Compound I-8], the IC50 lay in the range of 1 to 10 µM.

Turning to `CCC1=C(C)CN(C(=O)NCCc2ccc(S(=O)(=O)N(C)C(=O)N[C@H]3CC[C@H](CO)CC3)cc2)C1=O` [Compound I-9], the IC50 lay within 0.2 to 1 µM.

For the molecule `CCNC(=O)OC[C@H]1CC[C@H](NC(=O)NS(=O)(=O)c2ccc(CCNC(=O)N3CC(C)=C(CC)C3=O)cc2)CC1` [Compound I-10], the IC50 lay within 0.2 to 1 µM.

On to `CCNC(=O)OC[C@H]1CC[C@H](NC(=O)N(C)S(=O)(=O)c2ccc(CCNC(=O)N3CC(C)=C(CC)C3=O)cc2)CC1` [Compound I-11], for which the IC50 is under 0.2 µM.

In the case of `CCC1=C(C)CN(C(=O)NCCc2ccc(S(=O)(=O)NC(=O)N[C@H]3CC[C@H](COC(=O)NC4CC4)CC3)cc2)C1=O` [Compound I-12], the IC50 fell in the range of 0.2 to 1 µM.

In the case of `CCC1=C(C)CN(C(=O)NCCc2ccc(S(=O)(=O)NC(=O)N[C@H]3CC[C@H](COC(=O)Nc4ccc(OC(F)(F)F)cc4)CC3)cc2)C1=O` [Compound I-13], the IC50 fell in the range of 1 to 10 µM.

`CCC1=C(C)CN(C(=O)NCCc2ccc(S(=O)(=O)NC(=O)N[C@H]3CC[C@H](COC(=O)CN(C)C)CC3)cc2)C1=O` [Compound I-14]: the IC50 lay within 10 to 100 µM.

`CCC1=C(C)CN(C(=O)NCCc2ccc(S(=O)(=O)NC(=O)N[C@H]3CC[C@H](COC(=O)CN4CCCCC4)CC3)cc2)C1=O` [Compound I-16]: the IC50 was in the range of 0.2 to 1 µM.

`CCC1=C(C)CN(C(=O)NCCc2ccc(S(=O)(=O)NC(=O)N[C@H]3CC[C@H](C(=O)OC(C)OC(=O)OC4CCCCC4)CC3)cc2)C1=O` (stereo partly drawn) [Compound I-17]: the IC50 lay within 10 to 100 µM.

On to `CCC1=C(C)CN(C(=O)NCCc2ccc(S(=O)(=O)NC(=O)N[C@H]3CC[C@H](COP(=O)(OCOC(=O)OC(C)C)OCOC(=O)OC(C)C)CC3)cc2)C1=O` [Compound I-18], for which the half-maximal inhibitory concentration (IC50) was in the range of 10 to 100 µM.

On to `CCC1=C(C)CN(C(=O)NCCc2ccc(S(=O)(=O)NC(=O)N[C@H]3CC[C@H](CO[P@](=O)(N[C@@H](C)C(=O)OC(C)C)Oc4ccccc4)CC3)cc2)C1=O` [Compound I-19], for which the half-inhibitory concentration (IC50) was 10 to 100 µM.

`CCC1=C(C)CN(C(=O)NCCc2ccc(S(=O)(=O)N(C)C(=O)N[C@H]3CC[C@H](COCP(=O)(OCOC(=O)OC(C)C)OCOC(=O)OC(C)C)CC3)cc2)C1=O` [Compound I-21]: the IC50 fell in the range of 10 to 100 µM.

In the case of `CCC1=C(C)CN(C(=O)NCCc2ccc(S(=O)(=O)N(C)C(=O)N[C@H]3CC[C@H](CO[P@](=O)(N[C@@H](C)C(=O)OC(C)C)Oc4ccccc4)CC3)cc2)C1=O` [Compound I-22], the IC50 was 10 to 100 µM.

Turning to `CCC1=C(C)CN(C(=O)NCCc2ccc(S(=O)(=O)N(C)C(=O)N[C@H]3CC[C@H](COC(C)=O)CC3)cc2)C1=O` [Compound I-24], the IC50 lay within 1 to 10 µM.

Take `CCC1=C(C)CN(C(=O)NCCc2ccc(S(=O)(=O)NC(=O)N[C@H]3CC[C@H](COC)CC3)cc2)C1=O` [Compound I-25]: the half-inhibitory concentration (IC50) was 0.2 to 1 µM.

For `CCC1=C(C)CN(C(=O)NCCc2ccc(S(=O)(=O)NC(=O)NC3CCC(C(=O)OC)CC3)cc2)C1=O` (stereo not drawn) [Compound I-26], the IC50 was 1 to 10 µM.

For the molecule `CCC1=C(C)CN(C(=O)NCCc2ccc(S(=O)(=O)N(C)C(=O)NC3CCC(C(=O)O)CC3)cc2)C1=O` (stereo not drawn) [Compound I-27], the IC50 lay in the range of 10 to 100 µM.

`CCC1=C(C)CN(C(=O)NCCc2ccc(S(=O)(=O)NC(=O)NC3CCC(C(=O)NC)CC3)cc2)C1=O` (stereo not drawn) [Compound I-29]: the IC50 is 1 to 10 µM.

For the molecule `CCCC1=C(C)CN(C(=O)NCCc2ccc(S(=O)(=O)NC(=O)NC3CCC(C(=O)OC)CC3)cc2)C1=O` (stereo not drawn) [Compound I-30], the IC50 was 10 to 100 µM.

Consider `CCC1=C(C)CN(C(=O)NCCc2ccc(S(=O)(=O)NC(=O)N[C@H]3CC[C@H](OC(N)=O)CC3)cc2)C1=O` [Compound I-31], for which the IC50 was 1 to 10 µM.

Turning to `Cc1cnc(C(=O)NCCc2ccc(S(=O)(=O)N(C)C(=O)NC3CCCCC3)cc2)cn1` [Compound I-32], the concentration for half-maximal inhibition (IC50) is 1 to 10 µM.

In the case of `Cc1ccc(S(=O)(=O)N(C)C(=O)NN2CCCCCC2)cc1` [Compound I-33], the IC50 was in the range of 1 to 10 µM.

Turning to `CCC1=C(C)CN(C(=O)NCCc2ccc(S(=O)(=O)N(C)C(=O)NC3CCC(CC)CC3)cc2)C1=O` (stereo not drawn) [Compound I-34], the half-inhibitory concentration (IC50) lay in the range of 1 to 10 µM.

Take `Cc1cc(C(=O)NCCc2ccc(S(=O)(=O)N(C)C(=O)NN3CCCCCC3)cc2)no1` [Compound I-35]: the IC50 is 1 to 10 µM.

In the case of `Cc1ccc(S(=O)(=O)N(C)C(=O)NC2[C@@H](O)C3(C)CC[C@@H]2C3(C)C)cc1` (stereo partly drawn) [Compound I-36], the IC50 lay within 1 to 10 µM.

With `CCC1=C(C)CN(C(=O)NCCc2ccc(S(=O)(=O)N(CC)C(=O)N[C@H]3CC[C@H](C)CC3)cc2)C1=O` [Compound I-37], the IC50 was 1 to 10 µM.

For the molecule `CCC1=C(C)CN(C(=O)NCCc2ccc(S(=O)(=O)N(C(=O)N[C@H]3CC[C@H](C)CC3)C(C)C)cc2)C1=O` [Compound I-38], the IC50 is 1 to 10 µM.

Take `CCC(=O)OC[C@H]1CC[C@H](NC(=O)NS(=O)(=O)c2ccc(CCNC(=O)N3CC(C)=C(CC)C3=O)cc2)CC1` [Compound I-39]: the IC50 is 1 to 10 µM.

Regarding `CCC(=O)OC[C@H]1CC[C@H](NC(=O)N(C)S(=O)(=O)c2ccc(CCNC(=O)N3CC(C)=C(CC)C3=O)cc2)CC1` [Compound I-40], the IC50 lay in the range of 1 to 10 µM.

On to `CCC1=C(C)CN(C(=O)NCCc2ccc(S(=O)(=O)NC(=O)N[C@H]3CC[C@H](COC(=O)C(C)C)CC3)cc2)C1=O` [Compound I-41], for which the IC50 was 1 to 10 µM.

As for `CCC1=C(C)CN(C(=O)NCCc2ccc(S(=O)(=O)N(C)C(=O)N[C@H]3CC[C@H](COC(=O)C(C)C)CC3)cc2)C1=O` [Compound I-42], the IC50 was 1 to 10 µM.

On to `CCC1=C(C)CN(C(=O)NCCc2ccc(S(=O)(=O)NC(=O)N[C@H]3CC[C@H](COC(=O)C(C)(C)C)CC3)cc2)C1=O` [Compound I-43], for which the IC50 fell in the range of 1 to 10 µM.

As for `CCC1=C(C)CN(C(=O)NCCc2ccc(S(=O)(=O)N(C)C(=O)N[C@H]3CC[C@H](COC(=O)C(C)(C)C)CC3)cc2)C1=O` [Compound I-44], the IC50 lay in the range of 1 to 10 µM.

The next assay deals with mice with chronic heart failure (TAC). Kind of assay: TAC mouse model, comparison of I-23 and Empagliflozin. The class given is in vivo. The note with it: mice, daily gavage eight weeks; I-23 0.44 mg/kg; Empagliflozin 10 mg/kg. An excerpt:
12-week-old male C57BL/6 mice, which were purchased from Gempharmatech Co., Ltd, were raised in the SPF animal house of Tongji Medical College, Huazhong University of Science and Technology. After one week of acclimatization in the animal house, the mice were subjected to thoracic aortic constriction as the TAC group. Another group of mice were subjected to thoracotomy without ligation of thoracic aorta as Sham group. Meanwhile, AUDA was used as the positive control.
Cardiac ultrasound detection was performed on a Visual Sonics Vevo 2100 small animal ultrasound imager. The major measurement indicators include heart rate (HR), left ventricular ejection fraction (LVEF), left ventricular fractional shortening (LVFS), left ventricular internal dimension-diastole (LVIDd) and left ventricular internal dimension-systole (LVIDs), and left ventricular posterior wall thickness (LVPWd and LVPWs).
The detection was performed on a Millar pressure-volume system from Millar Instr Ment PowerLab. After the animals were anesthetized to an appropriate extent, a midline incision was made in the neck, the right common carotid artery was separated, ligated at the distal end and clipped at the proximal end. A V-shaped incision was made on the artery with microscissors, and a microcatheter was inserted to the left ventricle. Signals were recorded through a conduction system to obtain hemodynamic data such as heart rate (HR), left ventricular end diastolic pressure (PED), left ventricular end systolic pressure (PES), maximum rate of decrease in left ventricular pressure (−dp/dtmin), and maximum rate of increase in left ventricular pressure (+dP/dtmax).
The myocardial tissue was placed in an embedding frame, soaked and fixed in neutral formaldehyde solution, dehydrated, and embedded in paraffin. The paraffin block was then sliced into sections with a thickness of 4 μm on a microtome. The general appearance of the myocardium was observed through HE staining, and the myocardial fibrosis was observed through Sirius red staining.
Total RNA was extracted using Invitrogen's Trizol reagent, then cDNA was obtained using TAKARA's reverse transcription kit, and finally the mRNA content of related genes was amplified with specific primers.
Cardiac ultrasound examination was performed two weeks after TAC surgery. 24 TAC mice with no significant difference in cardiac function were selected and randomly divided into a model group (TAC) and a treatment group (TAC+compound). The model group received no other treatment, while the treatment group received daily gavage (0.44 mg/kg for I-23 or 10 mg/kg for Empagliflozin). Eight weeks later, i.e., at the chronic heart failure phase, the animals were sacrificed, and tissue specimens were collected to perform the above detections.
This experiment was to compare the ameliorative effects of I-23 and Empagliflozin on chronic heart failure.
Regarding `OC[C@H]1O[C@@H](c2ccc(Cl)c(Cc3ccc(O[C@H]4CCOC4)cc3)c2)[C@H](O)[C@@H](O)[C@@H]1O` [Empagliflozin, reference compound], the “cardiac hypertrophy (heart photographs, heart weight/tibia length HW/TL)” value is recorded as “reversal effect”; the “expression of BNP in mouse cardiomyocytes after TAC” value is recorded as “can inhibit this effect”; the “impaired cardiac function (EF value, FS value, LVIDs, dp/dt)” value is given as “can inhibit this effect”; the “positive area of Sirius red staining (myocardial fibrosis)” value was “can inhibit this effect”.
